Results taken from the NIST ThermoML archive (doi:10.1016/j.jct.2008.10.002).

Assays:
[1] = excess molar enthalpy (molar enthalpy of mixing); xn = mol fraction of the nth substance listed; details: 303.15 K, 101.3 kPa, Liquid
[2] = xn = mol fraction of the nth substance listed; details: 101.3 kPa, Liquid, Vibrating tube method
[3] = molar heat capacity at constant pressure; xn = mol fraction of the nth substance listed; details: 101.3 kPa, Liquid, Small sample (50 mg) DSC

CCCCn1cc[n+](C)c1.COS(=O)(=O)[O-] [1-butyl-3-methylimidazolium methyl sulfate] + O
[1]
Details	excess molar enthalpy [kcal/mol]
x1 = 0.0506	-0.0676
x1 = 0.1003	-0.0966
x1 = 0.1461	-0.115
x1 = 0.2018	-0.125
x1 = 0.299	-0.128
x1 = 0.4021	-0.117
x1 = 0.5447	-0.0987
x1 = 0.6795	-0.0755
x1 = 0.8434	-0.0413

Details	mass density, [2] [kg/m3]	molar heat capacity at constant pressure, [3] [J/K/mol]
293.15 K, x1 = 0.0213	1041.7	84.8
293.15 K, x1 = 0.0489	1081	95.3
293.15 K, x1 = 0.0996	1123.8	112
293.15 K, x1 = 0.1975	1162.3	143.8
293.15 K, x1 = 0.2938	1180	175.2
293.15 K, x1 = 0.3948	1190.5	207.8
293.15 K, x1 = 0.4809	1196.3	235.7
293.15 K, x1 = 0.5724	1200.7	265.9
293.15 K, x1 = 0.6552	1203.6	293.4
293.15 K, x1 = 0.8002	1207.3	343.5
293.15 K, x1 = 0.8199	1207.7	–
293.15 K, x1 = 0.9554	1210	397.9
298.15 K, x1 = 0.0213	1039.7	84.8
298.15 K, x1 = 0.0489	1078.3	95.6
298.15 K, x1 = 0.0996	1120.5	112.6
298.15 K, x1 = 0.1975	1158.8	144.9
298.15 K, x1 = 0.2938	1176.5	176.5
298.15 K, x1 = 0.3948	1187	209.3
298.15 K, x1 = 0.4809	1192.9	237.3
298.15 K, x1 = 0.5724	1197.3	267.7
298.15 K, x1 = 0.6552	1200.3	295.3
298.15 K, x1 = 0.8002	1204	345.5
298.15 K, x1 = 0.8199	1204.3	–
298.15 K, x1 = 0.9554	1206.7	400.1
303.15 K, x1 = 0.0213	1037.5	84.9
303.15 K, x1 = 0.0489	1075.4	96
303.15 K, x1 = 0.0996	1117.1	113.3
303.15 K, x1 = 0.1975	1155.2	146.1
303.15 K, x1 = 0.2938	1173	177.8
303.15 K, x1 = 0.3948	1183.6	210.8
303.15 K, x1 = 0.4809	1189.5	239
303.15 K, x1 = 0.5724	1193.9	269.5
303.15 K, x1 = 0.6552	1196.9	297.3
303.15 K, x1 = 0.8002	1200.7	347.6
303.15 K, x1 = 0.8199	1201	–
303.15 K, x1 = 0.9554	1203.4	402.3
308.15 K, x1 = 0.0213	1035.2	84.9
308.15 K, x1 = 0.0489	1072.4	96.2
308.15 K, x1 = 0.0996	1113.6	113.9
308.15 K, x1 = 0.1975	1151.7	147.1
308.15 K, x1 = 0.2938	1169.5	179
308.15 K, x1 = 0.3948	1180.2	212.2
308.15 K, x1 = 0.4809	1186.1	240.5
308.15 K, x1 = 0.5724	1190.6	271.2
308.15 K, x1 = 0.6552	1193.6	299.2
308.15 K, x1 = 0.8002	1197.4	349.7
308.15 K, x1 = 0.8199	1197.7	–
308.15 K, x1 = 0.9554	1200.1	404.5
313.15 K, x1 = 0.0213	1032.7	84.9
313.15 K, x1 = 0.0489	1069.3	96.5
313.15 K, x1 = 0.0996	1110.1	114.5
313.15 K, x1 = 0.1975	1148	148.1
313.15 K, x1 = 0.2938	1166	180.3
313.15 K, x1 = 0.3948	1176.7	213.6
313.15 K, x1 = 0.4809	1182.7	242.1
313.15 K, x1 = 0.5724	1187.2	272.9
313.15 K, x1 = 0.6552	1190.3	301.2
313.15 K, x1 = 0.8002	1194.1	351.7
313.15 K, x1 = 0.8199	1194.4	–
313.15 K, x1 = 0.9554	1196.8	406.7
318.15 K, x1 = 0.0213	1030.1	85.1
318.15 K, x1 = 0.0489	1066.2	96.8
318.15 K, x1 = 0.0996	1106.6	115.2
318.15 K, x1 = 0.1975	1144.4	149.1
318.15 K, x1 = 0.2938	1162.5	181.6
318.15 K, x1 = 0.3948	1173.3	215
318.15 K, x1 = 0.4809	1179.3	243.7
318.15 K, x1 = 0.5724	1183.9	274.6
318.15 K, x1 = 0.6552	1186.9	303.1
318.15 K, x1 = 0.8002	1190.8	353.8
318.15 K, x1 = 0.8199	1191.1	–
318.15 K, x1 = 0.9554	1193.6	408.9

CCCCn1cc[n+](C)c1.O=S(=O)([O-])C(F)(F)F [1-butyl-3-methylimidazolium trifluoromethanesulfonate] + O
[1]
Details	excess molar enthalpy [kcal/mol]
x1 = 0.1007	0.157
x1 = 0.1989	0.257
x1 = 0.2954	0.312
x1 = 0.3944	0.332
x1 = 0.4985	0.317
x1 = 0.5757	0.293
x1 = 0.6624	0.245
x1 = 0.8201	0.136

Details	mass density, [2] [kg/m3]	molar heat capacity at constant pressure, [3] [J/K/mol]
293.15 K, x1 = 0.0496	1119.8	98.5
293.15 K, x1 = 0.1012	1176.7	–
293.15 K, x1 = 0.1415	1202.8	131.9
293.15 K, x1 = 0.197	1227.4	–
293.15 K, x1 = 0.2965	1252.5	–
293.15 K, x1 = 0.3369	1259.7	200.1
293.15 K, x1 = 0.3873	1266.8	–
293.15 K, x1 = 0.4868	1277.3	250
293.15 K, x1 = 0.5637	1283.2	274.4
293.15 K, x1 = 0.6636	1289.1	307.4
293.15 K, x1 = 0.7124	1291.6	322.5
293.15 K, x1 = 0.796	1295.2	350.7
293.15 K, x1 = 0.9017	1298.8	387.2
293.15 K, x1 = 0.9456	1300.1	–
298.15 K, x1 = 0.0496	1116.9	98.7
298.15 K, x1 = 0.1012	1173.2	–
298.15 K, x1 = 0.1415	1199	132.6
298.15 K, x1 = 0.197	1223.4	–
298.15 K, x1 = 0.2965	1248.4	–
298.15 K, x1 = 0.3369	1255.6	201.3
298.15 K, x1 = 0.3873	1262.7	–
298.15 K, x1 = 0.4868	1273.2	251.5
298.15 K, x1 = 0.5637	1279.1	276.1
298.15 K, x1 = 0.6636	1285.1	309.4
298.15 K, x1 = 0.7124	1287.6	324.4
298.15 K, x1 = 0.796	1291.2	352.9
298.15 K, x1 = 0.9017	1294.8	389.4
298.15 K, x1 = 0.9456	1296.1	–
303.15 K, x1 = 0.0496	1113.8	98.9
303.15 K, x1 = 0.1012	1169.5	–
303.15 K, x1 = 0.1415	1195.1	133.3
303.15 K, x1 = 0.197	1219.3	–
303.15 K, x1 = 0.2965	1244.3	–
303.15 K, x1 = 0.3369	1251.5	202.7
303.15 K, x1 = 0.3873	1258.6	–
303.15 K, x1 = 0.4868	1269.1	253.2
303.15 K, x1 = 0.5637	1275.1	277.8
303.15 K, x1 = 0.6636	1281.1	311.5
303.15 K, x1 = 0.7124	1283.6	326.4
303.15 K, x1 = 0.796	1287.2	355.2
303.15 K, x1 = 0.9017	1290.9	391.8
303.15 K, x1 = 0.9456	1292.2	–
308.15 K, x1 = 0.0496	1110.6	99.1
308.15 K, x1 = 0.1012	1165.7	–
308.15 K, x1 = 0.1415	1191.2	134
308.15 K, x1 = 0.197	1215.3	–
308.15 K, x1 = 0.2965	1240.2	–
308.15 K, x1 = 0.3369	1247.4	204.1
308.15 K, x1 = 0.3873	1254.5	–
308.15 K, x1 = 0.4868	1265.1	254.9
308.15 K, x1 = 0.5637	1271	279.7
308.15 K, x1 = 0.6636	1277.1	313.7
308.15 K, x1 = 0.7124	1279.6	328.5
308.15 K, x1 = 0.796	1283.2	357.6
308.15 K, x1 = 0.9017	1286.9	394.4
308.15 K, x1 = 0.9456	1288.2	–
313.15 K, x1 = 0.0496	1107.3	99.4
313.15 K, x1 = 0.1012	1161.9	–
313.15 K, x1 = 0.1415	1187.1	134.8
313.15 K, x1 = 0.197	1211.2	–
313.15 K, x1 = 0.2965	1236	–
313.15 K, x1 = 0.3369	1243.3	205.5
313.15 K, x1 = 0.3873	1250.4	–
313.15 K, x1 = 0.4868	1261	256.7
313.15 K, x1 = 0.5637	1267	281.7
313.15 K, x1 = 0.6636	1273.1	316.1
313.15 K, x1 = 0.7124	1275.6	330.7
313.15 K, x1 = 0.796	1279.2	360.2
313.15 K, x1 = 0.9017	1283	397
313.15 K, x1 = 0.9456	1284.3	–
318.15 K, x1 = 0.0496	1103.9	99.7
318.15 K, x1 = 0.1012	1158	–
318.15 K, x1 = 0.1415	1183.1	135.7
318.15 K, x1 = 0.197	1207	–
318.15 K, x1 = 0.2965	1231.9	–
318.15 K, x1 = 0.3369	1239.1	207.1
318.15 K, x1 = 0.3873	1246.3	–
318.15 K, x1 = 0.4868	1256.9	258.7
318.15 K, x1 = 0.5637	1263	283.7
318.15 K, x1 = 0.6636	1269.1	318.6
318.15 K, x1 = 0.7124	1271.6	333.1
318.15 K, x1 = 0.796	1275.3	362.9
318.15 K, x1 = 0.9017	1279	399.9
318.15 K, x1 = 0.9456	1280.3	–
